# Literature values as cited in the CATMoS acute toxicity set (Mansouri et al. 2021).
# Values joined by “and” are separate entries in the source; they are usually repeats but may differ in a detail not shown here. Identical values can stand only once.
# Assay: rat acute oral toxicity
# Details: in vivo
# From the text: […]The data set underlying the modeling effort for this project was initially compiled by NICEATM and U.S. EPA’s CCTE. Briefly, LD50 data were collected from rat acute oral systemic toxicity tests, including limit tests, ranges/confidence intervals, and discrete LD50 values. The full data set included 21,200 LD50 entries for 15,688 substances. […] Data were reviewed to ensure that LD50 values with obvious errors in the extracted data such as unit conversion errors (e.g., comma and decimal separator misplacements) were either fixed or removed. After this review, 16,209 LD50 values remained. Many of the chemicals represented had multiple LD50 entries, requiring that a single representative value per Chemical Abstracts Service Registry Number (CASRN) identifier be defined to facilitate modeling efforts. Based on ATWG feedback and to define the representative LD50 as a protective value while accounting for the distribution across multiple LD50s, the median of the lowest quartile was computed using only discrete LD50 values (omitting limit test data and range and confidence interval data). A detailed summary of the data compilation is available online on the NICEATM webpage dedicated to the collaborative modeling project (NTP 2020).
# […][…] For categorical designations, limit test and range/confidence interval LD50 data were integrated wherever possible. As such, the number of chemicals with end point values/calls varies across the modeling end points (Table 3) based on whether chemicals had representative LD50 values and/or other data. If a chemical had both, the representative value was used to determine categorical calls rather than limit test data. Some data were useable only for certain end points and categories depending on the thresholds. For example, ranges that spanned multiple hazard categories were considered only for the binary (very toxic/nontoxic) end points and omitted from rendering a determination for hazard category assignment.
# […]The final data set comprising 11,992 chemicals was split into training and evaluation sets […], respectively. This process was performed semirandomly by ordering chemicals based on the five end points (categorical and continuous LD50 values) and partitioning every fourth record into the evaluation set accordingly. This approach was taken to ensure an equivalent distribution of the LD50 values and the different hazard categories between the training and the evaluation sets without supervised sampling of the chemicals based on structures (Figure 1A). The sources of the chemical structures were also kept equivalent between the two sets, with chemical structures obtained from DSSTox, being the highest quality, representing over 75% of each set (Figure 1B).
row,SMILES,LD50
1,N=C(N)NCCCCCCCCNCCCCCCCCNC(=N)N,300 mg/kg
2,CC(=O)OC(C(Cl)(Cl)Cl)P(=O)(Oc1ccccc1)Oc1ccccc1 (stereo not drawn),3280 mg/kg
3,NC1CCCCC1,720 mg/kg and 1650 mg/kg
4,C(=Nc1ccccc1)Nc1ccccc1,1900 mg/kg
5,CC1CNCCN1 (stereo not drawn),2030 mg/kg
6,CCC(=O)OC1CCC(N2CCCCC2)CC1 (stereo not drawn),1980 mg/kg
7,OC(CCl)CNCCNCC(O)CCl (stereo not drawn),1000 mg/kg
8,CC(C)(O)CC(C)(O)c1ccc(Cl)cc1 (stereo not drawn),1140 mg/kg
9,Cc1cccc(OCCC(C)C)c1N(C)C(=O)CCl,3300 mg/kg
10,CCOc1ccc(C2(c3ccc(OCC)cc3)CC2(Cl)Cl)cc1,755 mg/kg
11,CN1CCC(=C2c3ccccc3CC(=O)c3sccc32)CC1,360 mg/kg
12,Clc1nc(Cl)c(Cl)[nH]1,11 mg/kg
13,CCSc1nnc(C(C)(C)C)c(=O)n1N,599 mg/kg
14,CCn1cc(C(=O)O)c(=O)c2cnc(N3CCNCC3)nc21,16000 mg/kg
15,O=C(O)CSc1cccc2cccc(CCl)c12,2500 mg/kg
16,CCOC(=O)C(C#N)C(C)=O (stereo not drawn),500 mg/kg
17,CNC(C)C1CCC(N)C(OC2C(N)CC(N)C(OC3OCC(C)(O)C(NC)C3O)C2O)O1 (stereo not drawn),6600 mg/kg
18,COC1CCC=CO1 (stereo not drawn),1410 mg/kg
19,O=CC(Cl)(Cl)Cl,480 mg/kg
20,CCC(C(=O)O)c1ccc(CC(C)C)cc1 (stereo not drawn),1600 mg/kg
21,CCCC(C)C1(CC)C(=O)N=C(S)NC1=O (stereo not drawn),117 mg/kg

row,SMILES,LD50
1,CCCCNCCO,1150 mg/kg
2,O=C(O)Cc1ccc(-c2ccccc2F)cc1,638 mg/kg
3,CCCCCCCCCCCCOC(CBr)c1ccc(C(C)C)cc1 (stereo not drawn),250 mg/kg
4,O=S(=O)(F)C(F)(F)C(F)(F)C(F)(F)C(F)(F)C(F)(F)C(F)(F)C(F)(F)C(F)(F)F,154 mg/kg
5,CSC#N,60 mg/kg
6,CC(=O)OC1CC2CCC3C(CCC4(C)C3CC(OC(C)=O)C4[N+]3(C)CCCCC3)C2(C)CC1[N+]1(C)CCCCC1 (stereo not drawn),202 mg/kg
7,CCOC(=O)C(C(C)=O)C(=O)Cc1c(C)n(C(=O)c2ccc(Cl)cc2)c2ccc(OC)cc12 (stereo not drawn),175 mg/kg
8,O=C(O)CSc1cc(Cl)ccc1Cl,1900 mg/kg
9,CCCCN(CC)N=O,380 mg/kg
10,O=P(CCCl)(OCCCl)OCCCl,880 mg/kg
11,CCOC1CC2CN3CCc4c([nH]c5cc(OC)ccc45)C3CC2C(C(=O)OC)C1OC (stereo not drawn),187 mg/kg
12,ClC(Cl)=C1C(Cl)(Cl)C(Cl)=C(Cl)C1(Cl)Cl,3700 mg/kg
13,CCCCn1cnnc1,50 mg/kg
14,CCOC(=O)C(C(=O)Cc1c(C)n(C(=O)c2ccc(Cl)cc2)c2ccc(OC)cc12)C(=O)OCC,520 mg/kg
15,CCCCOC(=O)CCCCC(=O)OCCCC,12900 mg/kg
16,O=c1ccc2cc3ccoc3c(O)c2o1,480 mg/kg
17,N#CCCC#N,450 mg/kg
18,N#CCCCCCN,820 mg/kg
19,Cc1ccc(C(C)C)cc1,4750 mg/kg
20,C1CC2OC2CC1C1CO1 (stereo not drawn),2830 mg/kg
21,C/C=C/Cl,1950 mg/kg

row,SMILES,LD50
1,Cc1ccc(SN(C)C(=O)Oc2cccc3c2OC(C)(C)C3)cc1,25 mg/kg
2,C[C@H](N)[C@H](O)c1cccc(O)c1,240 mg/kg
3,CC(C)COc1ccc2ccccc2c1,5930 mg/kg
4,COC1CC2CC1C1CC(C=O)CC21 (stereo not drawn),2800 mg/kg
5,CN(C)CCN(CCN(C)C)n1cc(-c2ccccc2)c2ccccc21,1250 mg/kg
6,CCSC(C)C1(CC)C(=O)NC(=S)NC1=O (stereo not drawn),772 mg/kg
7,NC(=O)CCN1CCN(C2Cc3cc(Cl)ccc3Sc3cc(F)ccc32)CC1 (stereo not drawn),472 mg/kg and 490 mg/kg
8,N[C@@H](CC(=O)O)C(=O)O,7940 mg/kg
9,O[C@@H](c1cc(C(F)(F)F)nc2c(C(F)(F)F)cccc12)[C@H]1CCCCN1,880 mg/kg
10,CC(C)NCC(O)COc1cccc2c1OCC(O)C2 (stereo not drawn),1840 mg/kg
11,CCCc1ccn[nH]1,616 mg/kg
12,CCO[Si](CS)(OCC)OCC,2550 mg/kg
13,O=C(CCCN1CCC(O)(c2ccc(Cl)c(C(F)(F)F)c2)CC1)c1ccc(F)cc1,195 mg/kg
14,Clc1cc(Cl)c(Cl)c(-c2cc(Cl)c(-c3cc(Cl)c(Cl)c(Cl)c3)c(Cl)c2Cl)c1,19200 mg/kg
15,CCCCN1CCCC1C(=O)Nc1c(C)cc(C)cc1C (stereo not drawn),14000 mg/kg
16,CC(C)=CCO,810 mg/kg
17,CC(=O)CCc1ccc(O)cc1,1320 mg/kg
18,Cc1cccc(C)c1NC(=O)C1(N(C)C)CCN(C2CCCCC2O)CC1 (stereo not drawn),4.83 mg/kg
19,O=C(O)CCC(=O)c1ccc2oc3ccccc3c2c1,1280 mg/kg
20,C[C@@H]1C[C@H]2[C@@H]3C[C@H](F)C4=CC(=O)C=C[C@]4(C)[C@H]3[C@@H](O)C[C@]2(C)[C@H]1C(=O)CO,245 mg/kg
21,CCCCNC1CCCCC1,330 mg/kg
